Reference: patent US20090306137A1, “TREATMENT FOR DEPRESSIVE DISORDERS” (priority 2006, published 2009)
“And” between values parts separate entries of the source, which are not always exact repeats. Equal entries are not always repeated.

Legend:
Nea1 = test: receptor affinity; format: binding; settings: high affinity
Nea2c = biological target: T1, Nea2c (Homo sapiens, UniProt P18825); test: receptor affinity; format: binding; settings: high affinity
T1 sequence (P18825 1-462): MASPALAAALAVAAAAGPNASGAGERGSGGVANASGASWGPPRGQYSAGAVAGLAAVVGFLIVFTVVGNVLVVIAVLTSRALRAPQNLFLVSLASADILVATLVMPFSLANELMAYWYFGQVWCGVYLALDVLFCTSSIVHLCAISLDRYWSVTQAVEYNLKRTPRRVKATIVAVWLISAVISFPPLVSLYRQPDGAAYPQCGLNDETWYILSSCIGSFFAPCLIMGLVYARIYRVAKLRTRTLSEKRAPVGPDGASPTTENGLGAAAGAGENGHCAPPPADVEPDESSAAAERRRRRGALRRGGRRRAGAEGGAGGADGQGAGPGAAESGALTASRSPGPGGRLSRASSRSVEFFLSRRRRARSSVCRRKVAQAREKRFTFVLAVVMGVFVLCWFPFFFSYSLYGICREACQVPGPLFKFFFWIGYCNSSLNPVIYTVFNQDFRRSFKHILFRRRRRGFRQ

5-HT1A = biological target: T2, 5-HT1A (Homo sapiens, UniProt P08908); test: receptor affinity; format: binding; settings: listed both as high and as moderate affinity
T2 sequence (P08908 1-422): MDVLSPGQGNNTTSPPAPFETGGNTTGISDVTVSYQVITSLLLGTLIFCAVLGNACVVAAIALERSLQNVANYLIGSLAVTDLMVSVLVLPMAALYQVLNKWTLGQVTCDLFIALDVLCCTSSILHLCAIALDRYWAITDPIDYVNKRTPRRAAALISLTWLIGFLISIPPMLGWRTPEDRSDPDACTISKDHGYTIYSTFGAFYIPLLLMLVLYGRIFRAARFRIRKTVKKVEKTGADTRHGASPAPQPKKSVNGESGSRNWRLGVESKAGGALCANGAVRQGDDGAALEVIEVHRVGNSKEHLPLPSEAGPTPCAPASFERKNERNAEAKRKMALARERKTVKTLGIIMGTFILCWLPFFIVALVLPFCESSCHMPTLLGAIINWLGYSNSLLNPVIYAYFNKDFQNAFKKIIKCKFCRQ

[1] = biological target: other dopaminergic, adrenergic, and serotoninergic receptors; test: receptor affinity; format: binding; settings: moderate affinity
D3 = D3 (Homo sapiens, UniProt P35462); test: receptor affinity; format: binding; settings: high affinity
D3, sequence (P35462 whole entry): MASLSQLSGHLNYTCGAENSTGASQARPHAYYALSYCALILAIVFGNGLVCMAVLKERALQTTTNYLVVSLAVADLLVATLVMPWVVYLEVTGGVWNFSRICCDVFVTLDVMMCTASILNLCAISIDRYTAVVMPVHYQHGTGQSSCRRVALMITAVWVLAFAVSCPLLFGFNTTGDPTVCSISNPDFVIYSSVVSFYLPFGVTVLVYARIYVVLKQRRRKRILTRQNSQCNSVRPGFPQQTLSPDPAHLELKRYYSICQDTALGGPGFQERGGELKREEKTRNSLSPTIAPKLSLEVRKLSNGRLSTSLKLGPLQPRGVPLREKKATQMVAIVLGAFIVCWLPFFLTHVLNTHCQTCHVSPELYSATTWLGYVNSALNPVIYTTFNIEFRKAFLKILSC

[2] = tested on: selected dopaminergic, serotoninergic, and adrenergic receptors; test: functional action at receptors; format: biochemical

With `COc1cc(C(C)=O)ccc1OCCCN1CCC(c2noc3cc(F)ccc23)CC1` [Iloperidone, 1-[4-[3-[4-(6-flouro-1,2-benzisoxazol-3-yl)-1-piperidinyl]propoxy]-3-methoxyphenyl]ethanone] the Kd (Nea1) was < 10 nM, the Kd (Nea2c) was < 10 nM and the Kd (5-HT1A) was < 10 nM and 10 to 100 nM. The Kd [1] was 10 to 100 nM, the Kd (D3) was < 10 nM and the “mode of action at receptors” value [2] was “antagonist”.
